In article PMC5693244 (European journal of medicinal chemistry, 2017):

What was measured:
h-FPR2 [1] = target: T1, h-FPR2 (Homo sapiens, UniProt P25090); conditions: previously characterized; ref [33]; cited from earlier work
T1 sequence (P25090 1-351): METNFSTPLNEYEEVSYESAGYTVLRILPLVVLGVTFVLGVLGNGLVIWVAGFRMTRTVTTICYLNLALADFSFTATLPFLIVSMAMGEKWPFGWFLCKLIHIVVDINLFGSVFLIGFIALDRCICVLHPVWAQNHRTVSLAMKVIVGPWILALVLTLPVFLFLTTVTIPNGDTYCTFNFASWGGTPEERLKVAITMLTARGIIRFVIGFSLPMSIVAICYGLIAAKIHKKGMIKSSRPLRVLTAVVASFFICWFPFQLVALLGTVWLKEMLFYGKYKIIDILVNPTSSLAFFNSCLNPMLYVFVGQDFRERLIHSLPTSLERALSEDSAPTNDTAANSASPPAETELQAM

[2] = Stability assays in rat liver microsomes; format: in vitro ADME; conditions: pH 7.4, Metabolic stability (% remaining), percent of parent compound remaining after 30-min incubation
h-FPR2 [3] = target: T1, h-FPR2; test: Ca2+ mobilization in FPR2-HL60 transfected cells; format: cell-based; conditions: for EC50, μM FPR2-HL60 / Agonist character (full/partial) at FPR2: Ca2+ mobilization; for EC50, μM FPR2-HL60: FPR2-HL60 cells
hCMEC/D3 cells = test: Bidirectional transport across hCMEC/D3 cell monolayer; format: in vitro ADME, human; conditions: 100 μM, 2 h; for PappAB: apical-to-basolateral transport; for PappBA: basolateral-to-apical transport
[4] = system: TNF-α production in rat microglial cell cultures; test: TNF-α ELISA in rat microglial cell cultures; format: cell-based; conditions: for Effect on LPS-evoked TNF-α production / Block by WRW4 of effect on TNF-α: LPS-stimulated; for Effect on LPS-evoked TNF-α production: 0.5 to 10 μM; for Effect on TNF-α production: basal conditions, agonists 0.5 μM-10 μM; for Block by WRW4 of effect on TNF-α: pre-treatment with FPR2 antagonist WRW4
[5] = system: NO production in rat microglial cell cultures; test: NO release assay; format: cell-based; conditions: for Effect on LPS-increased NO level: LPS-stimulated, (S)-10 at 5 μM and 10 μM; for Effect on NO level: basal conditions
[6] = system: rat primary microglial cells; test: Lactate dehydrogenase; format: cell-based; conditions: for Effect on LPS-induced cell death (LDH release): LPS-stimulated, pre-treatment 1 μM and 5 μM; for Effect on LDH release (cell death) / Effect on LDH release: basal conditions; for Effect on LDH release (cell death): 50 μM; for Effect on LDH release: 0.5–10 μM, 24 h
human neutrophils = test: Ca2+ mobilization in human neutrophils; format: cell-based
[7] = system: IL-1β production in rat microglial cell cultures; test: IL-1β ELISA in rat microglial cell cultures; format: cell-based; conditions: for Effect on LPS-evoked IL-1β production / Block by WRW4 of effect on IL-1β: LPS-stimulated; for Effect on LPS-evoked IL-1β production: 0.5 to 10 μM; for Block by WRW4 of effect on IL-1β: pre-treatment with FPR2 antagonist WRW4; for Effect on IL-1β production: basal conditions, agonists 0.5 μM-10 μM
[8] = system: rat primary microglial cells; test: MTT cell viability test in rat primary microglial cell cultures; format: cell-based; conditions: for Effect on metabolic activity (MTT) / Effect on conversion of MTT dye: basal conditions; for Effect on metabolic activity (MTT): 0.5–10 μM, 24 h; for Effect on conversion of MTT dye: 50 μM
h-FPR1 = target: T2, h-FPR1 (Homo sapiens, UniProt P21462); test: Ca2+ mobilization in FPR1-HL60 transfected cells; format: cell-based
T2 sequence (P21462 1-350): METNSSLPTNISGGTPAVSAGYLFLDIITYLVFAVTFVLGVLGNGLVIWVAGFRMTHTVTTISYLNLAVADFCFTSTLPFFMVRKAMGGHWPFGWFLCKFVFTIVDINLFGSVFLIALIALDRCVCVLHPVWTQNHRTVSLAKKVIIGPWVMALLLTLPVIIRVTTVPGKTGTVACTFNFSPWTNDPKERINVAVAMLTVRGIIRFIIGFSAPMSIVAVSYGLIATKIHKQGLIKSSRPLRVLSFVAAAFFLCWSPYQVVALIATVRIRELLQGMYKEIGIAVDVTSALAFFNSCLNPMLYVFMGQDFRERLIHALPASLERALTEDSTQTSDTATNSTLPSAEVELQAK

[9] = Bidirectional transport across hCMEC/D3 cell monolayer; format: in vitro ADME, human; conditions: human

O=C(Nc1ccc([N+](=O)[O-])cc1)N[C@H](Cc1c[nH]c2ccccc12)C(=O)NCC1(c2ccccc2)CC1 [(R)-6]
Interaction with FPR2 (intrinsic activity) (h-FPR2 [1]): weak FPR2 antagonist

O=C(Nc1ccc(F)cc1)N[C@H](Cc1c[nH]c2ccccc12)C(=O)NCC1(c2ccccc2)CC1 [(R)-8, (R)-2-[3-(4-Fluorophenyl)ureido]-3-(1H-indol-3-yl)-N-[(1-phenylcyclopropyl)methyl]propanamide]
remaining at 0.5 h, 10 μM [2]: 4% | EC50, μM FPR2-HL60 (h-FPR2 [3]): not able to induce Ca^2+ mobilization

O=C(Nc1ccccc1)N[C@H](Cc1c[nH]c2ccccc12)C(=O)NCC1(c2ccccc2)CC1 [(R)-9, (R)-3-(1H-Indol-3-yl)-N-[(1-phenylcyclopropyl)methyl]-2-[3-(phenyl)ureido]propanamide]
EC50, μM FPR2-HL60 (h-FPR2 [3]): not able to induce Ca^2+ mobilization

N#Cc1ccc(C[C@@H](NC(=O)Nc2ccc([N+](=O)[O-])cc2)C(=O)NCC2(c3ccccc3)CC2)cc1 [(R)-10, (R)-3-(4-Cyanophenyl)-2-[3-(4-nitrophenyl)ureido]-N-[(1-phenylcyclopropyl)methyl]propanamide]
Agonist character (full/partial) at FPR2 (h-FPR2 [3]): full agonists

O=C(Nc1ccc([N+](=O)[O-])cc1)N[C@H](Cc1cccnc1)C(=O)NCC1(c2ccccc2)CC1 [(R)-11, (R)-2-[3-(4-Nitrophenyl)ureido]-N-[(1-phenylcyclopropyl)methyl]-3-(3-pyridinyl)-propanamide]
PappAB (hCMEC/D3 cells): 11924.5 ×10⁻⁶ cm/s | PappBA (hCMEC/D3 cells): 43754.4 ×10⁻⁶ cm/s | Effect on LPS-evoked TNF-α production [4]: effectively decrease LPS-evoked cytokine production | Effect on TNF-α production [4]: did not induce any change | Effect on LPS-increased NO level [5]: no effect was observed | Effect on NO level [5]: did not induce any change in NO level | Effect on LPS-induced cell death (LDH release) [6]: effectively blocked LPS-induced cell death processes | Effect on LDH release (cell death) [6]: significant increase in death processes | Effect on LDH release [6]: None of the compounds induced significant effects | EC50, μM Neutrophils (human neutrophils): submicromolar range | Agonist character (full/partial) at FPR2 (h-FPR2 [3]): partial agonists | Effect on LPS-evoked IL-1β production [7]: effectively decrease LPS-evoked cytokine production | Block by WRW4 of effect on IL-1β [7]: able to block the effect | Effect on IL-1β production [7]: did not induce any change | Effect on metabolic activity (MTT) in LPS-stimulated cells [8]: no effect was observed on metabolic activity | Effect on metabolic activity (MTT) [8]: None of the compounds induced significant effects

Cc1ccc(C2(CNC(=O)[C@@H](Cc3ccc(C#N)cc3)NC(=O)Nc3ccc(F)cc3)CC2)cc1F [(R)-15, (R)-3-(4-Cyanophenyl)-N-[[1-(3-fluoro-4-methylphenyl)cyclopropyl]methyl]-2-[3-(4-fluorophenyl)ureido]propanamide]
remaining at 0.5 h, 10 μM [2]: > 20%

COc1ccc(NC(=O)N[C@H](Cc2ccc(C#N)cc2)C(=O)NCC2(c3ccc(F)c(Cl)c3)CC2)cc1 [(R)-16, (R)-N-[[1-(3-Chloro-4-fluorophenyl)cyclopropyl]methyl]-3-(4-cyanophenyl)-2-[3-(4-methoxyphenyl)ureido]propanamide]
Agonist character (full/partial) at FPR1 (h-FPR1): potent FPR1 full agonists

N#Cc1ccc(C[C@@H](NC(=O)Nc2ccc(F)cc2)C(=O)NCC2(c3ccc(F)c(Cl)c3)CC2)cc1 [(R)-17, (R)-3-(4-Cyanophenyl)-N-[[1-(3-chloro-4-fluorophenyl)cyclopropyl]methyl]-2-[3-(4-fluorophenyl)ureido]propanamide]
remaining at 0.5 h, 10 μM [2]: > 20%

COc1ccc(NC(=O)N[C@@H](Cc2c[nH]c3ccccc23)C(=O)NCC2(c3ccccc3)CC2)cc1 [(S)-7, (S)-3-(1H-Indol-3-yl)-2-[3-(4-methoxyphenyl)ureido]-N-[(1-phenylcyclopropyl)methyl] propanamide]
Agonist character (full/partial) at FPR2 (h-FPR2 [3]): full agonist | Agonist character (full/partial) at FPR1 (h-FPR1): full agonist

O=C(Nc1ccc(F)cc1)N[C@@H](Cc1c[nH]c2ccccc12)C(=O)NCC1(c2ccccc2)CC1 [(S)-8, (S)-2-[3-(4-Fluorophenyl)ureido]-3-(1H-indol-3-yl)-N-[(1-phenylcyclopropyl)methyl]propanamide]
Agonist character (full/partial) at FPR2 (h-FPR2 [3]): partial agonists

O=C(Nc1ccccc1)N[C@@H](Cc1c[nH]c2ccccc12)C(=O)NCC1(c2ccccc2)CC1 [(S)-9, (S)-3-(1H-Indol-3-yl)-N-[(1-phenylcyclopropyl)methyl]-2-[3-(phenyl)ureido]propanamide]
Agonist character (full/partial) at FPR2 (h-FPR2 [3]): partial agonists

N#Cc1ccc(C[C@H](NC(=O)Nc2ccc([N+](=O)[O-])cc2)C(=O)NCC2(c3ccccc3)CC2)cc1 [(S)-10, (S)-3-(4-Cyanophenyl)-2-[3-(4-nitrophenyl)ureido]-N-[(1-phenylcyclopropyl)methyl]propanamide]
PappBA (hCMEC/D3 cells): 25303.3 ×10⁻⁶ cm/s | Effect on LPS-evoked TNF-α production [4]: effectively decrease LPS-evoked cytokine production | Block by WRW4 of effect on TNF-α [4]: did not abolish the observed effect | Effect on TNF-α production [4]: did not induce any change | Effect on LPS-increased NO level [5]: significantly attenuated | Effect on NO level [5]: did not induce any change in NO level | Effect on LPS-induced cell death (LDH release) [6]: effectively blocked LPS-induced cell death processes | Effect on LDH release (cell death) [6]: significant increase in death processes | Effect on LDH release [6]: None of the compounds induced significant effects | Agonist character (full/partial) at FPR2 (h-FPR2 [3]): full agonists | Increase in agonist potency compared to (S)-6 (h-FPR2 [3]; FPR2, (S)-10 compared to (S)-6): 10 fold | Effect on LPS-evoked IL-1β production [7]: effectively decrease LPS-evoked cytokine production | Block by WRW4 of effect on IL-1β [7]: did not abolish the observed effect | Effect on IL-1β production [7]: did not induce any change | Effect on metabolic activity (MTT) in LPS-stimulated cells [8]: no effect was observed on metabolic activity | Effect on conversion of MTT dye [8]: decreased the conversion of MTT dye | Effect on metabolic activity (MTT) [8]: None of the compounds induced significant effects

O=C(Nc1ccc([N+](=O)[O-])cc1)N[C@@H](Cc1cccnc1)C(=O)NCC1(c2ccccc2)CC1 [(S)-11, (S)-2-[3-(4-Nitrophenyl)ureido]-N-[(1-phenylcyclopropyl)methyl]-3-(3-pyridinyl)-propanamide]
Agonist character (full/partial) at FPR2 (h-FPR2 [3]): partial agonists | EC50, μM FPR1-HL60 (h-FPR1; FPR1-HL60 cells): low micromolar range

COc1ccc(NC(=O)N[C@@H](Cc2ccc(C#N)cc2)C(=O)NCC2(c3ccc(F)c(Cl)c3)CC2)cc1 [(S)-16, (S)-N-[[1-(3-Chloro-4-fluorophenyl)cyclopropyl]methyl]-3-(4-cyanophenyl)-2-[3-(4-methoxyphenyl)ureido]propanamide]
Agonist character (full/partial) at FPR1 (h-FPR1): potent FPR1 full agonists

N#Cc1ccc(C[C@H](NC(=O)Nc2ccc(F)cc2)C(=O)NCC2(c3ccc(F)c(Cl)c3)CC2)cc1 [(S)-17, (S)-3-(4-Cyanophenyl)-N-[[1-(3-chloro-4-fluorophenyl)cyclopropyl]methyl]-2-[3-(4-fluorophenyl)ureido]propanamide]
PappAB (hCMEC/D3 cells): 14552.1 ×10⁻⁶ cm/s | PappBA (hCMEC/D3 cells): 37598.1 ×10⁻⁶ cm/s | efflux ratio at 2 h, 100 μM [9]: < 3 | Effect on LPS-evoked TNF-α production [4]: effectively decrease LPS-evoked cytokine production | Block by WRW4 of effect on TNF-α [4]: able to block the effect | Effect on TNF-α production [4]: did not induce any change | Effect on LPS-increased NO level [5]: no effect was observed | Effect on NO level [5]: did not induce any change in NO level | Effect on LPS-induced cell death (LDH release) [6]: effectively blocked LPS-induced cell death processes | Effect on LDH release (cell death) [6]: significant increase in death processes | Effect on LDH release [6]: None of the compounds induced significant effects | EC50, μM Neutrophils (human neutrophils): submicromolar range | remaining at 0.5 h, 10 μM [2]: > 20% | Effect on LPS-evoked IL-1β production [7]: effectively decrease LPS-evoked cytokine production | Block by WRW4 of effect on IL-1β [7]: able to block the effect | Effect on IL-1β production [7]: did not induce any change | Effect on metabolic activity (MTT) in LPS-stimulated cells [8]: no effect was observed on metabolic activity | Effect on conversion of MTT dye [8]: decreased the conversion of MTT dye | Effect on metabolic activity (MTT) [8]: None of the compounds induced significant effects
